PMC12291464, “Modifying Antifungal Peptides as Safe Food Preservatives” (Journal of Agricultural and Food Chemistry, 2025)
Converted amounts (≈) assume the structure as drawn. “Also recorded” adds a separate entry of the source. Like-named read-outs stand apart in the source and are kept apart here. Residues, ends and D or L forms follow the SMILES beside them.

Experiments:
chymotrypsin = chymotrypsin (Bos taurus, UniProt P00766); test: Digestion examination of the peptides by chymotrypsin
Procedure: Peptides were dissolved in 1 mL of 100 μM NH4HCO3 to a final concentration of 4 mM, followed by the addition of 1 μL chymotrypsin (1 mg/mL), and were incubated at 37 °C and 150 rpm. At each time point, 75 μL of the solution was transferred to 90 °C for inactivation of the enzyme. After the peptides were frozen in liquid nitrogen and lyophilized, they were dissolved in DMSO and were analyzed in HPLC using Analytic Phenomenex Luna C18 (5 μm, 4.6 × 250 mm) with standard RP-HPLC conditions. The area under curve (AUC) was calculated at each time point and normalized to time = 0.
4 Peptide’s secondary structure and digestibility. (A) CD spectra of the peptides (50 μM) in DDW was measured using a J-1100 spectropolarimeter (Jasco), with the following parameters: wavelength range of 190–260 nm, bandwidth of 1 nm, data pitch of 0.1 nm, and three accumulations. A baseline spectrum was recorded using a 0.1 cm quartz cuvette filled with DDW and subtracted from the peptide spectrum to obtain the corrected CD spectrum. […] The area under the curve (AUC) was calculated at each time point and normalized to t = 0. The y axis ranges from 100%, meaning not digested at all, to 0%, meaning fully digested.

HEK cells = test: Toxicity assay on the human cell line (MTT); assay type: cell-based; details: 100 to 0.78 μM peptide, 24 h, read at 595 nm, normalized to untreated cells; 3 biological repeats in triplicates
Procedure: HEK cells were grown at 37 °C with 5% CO2 in Deulbecco’s modifield Eagle’s medium (DMEM, Sigma) with 2 mM L-glutamine, 1% (v/v) penicillin and streptomycin (Penstrep), and 20% (v/v) fetal bovine serum. The day before the experiment, cells were detached by gentle scraping, counted with a hemocytometer to a concentration of 10^6 cells/mL, and seeded into a 96-well microplate (Nunc, Thermo Scientific). The following day, serial dilutions from 100 to 0.78 μM for each peptide were introduced to the cells with DMEM lacking phenol red for 24 h. Later, 50 μL of 3-(4,5-dimethylthiazol-2-yl)-2,5-diphenyltetrazolium bromide (MTT, 0.5 mg/mL) was added to the wells for 2 h of incubation. At the end, 100 μL of DMSO was added for 30 min at 37 °C and 200 rpm, and the plate was read at 595 nm and normalized to the untreated cells.
Peptide Concentration [µM] Peptide Concentration [µM]
Supplementary 3. Cytotoxicity examination. HEK cells were cultured in DMEM with L-glutamine, PenStrep, and fetal bovine serum at 37°C and 5% CO2. The day before the experiment, cells were detached, counted (10^6 cells/ml), and seeded into a 96-well plate. […] Cell viability was assessed using the MTT assay; after adding 50µl of MTT and incubating for 2 hours, 100µl DMSO was added for 30minutes at 37 °C, 200rpm. Next, absorbance was measured at 595nm and normalized to untreated controls. […]

E. coli = test system: E. coli
Procedure: (§1) A1163 was grown on potato dextrose agar (PDA) medium at 37 °C for 5 days, and then the conidia were scraped and suspended in PBS with 0.025% (v/v) Tween 20, counted using a hemocytometer, and kept at 4 °C. isolated from peanuts and Pe21 (both kindly provided by Dr. Edward Sionov, ARO, Israel) were grown on PDA medium at 25 °C for 5 days, and then the conidia were scraped and suspended in PBS with 0.025% Tween 20 and kept at 4 °C. RP and methicillin-resistant (MRSA) were grown on LB agar plates, and individual colonies were picked and grown in Mueller–Hinton (MH) broth overnight at 37 °C. was grown on PDA medium at 30 °C, and individual colonies were picked and grown in yeast extract peptone dextrose (YPD) media overnight at 30 °C. All fungal and bacteria strains were maintained at −80 °C in 50% (v/v) glycerol stock.
(§2) For filamentous fungi strains, serial dilutions of 100 μL ranged from 100 to 0.78 μM for each peptide in a 96 well plate using RPMI1640 with 165 μM MOPS. A total of 80 μL of inoculum was suspended with a conidia load of 5 × 10^3 CFU/mL (final density of 2 × 10^3 CFU/mL), and 20 μL of resazurin was diluted in RPMI1640 solution of 0.02% [final concentration of 0.0002% (w/v)]. In the control, 100 μL of treatment was replaced by the same volume with medium, while the negative control was 180 μL of the medium and 20 μL of resazurin solution. Plates were incubated at 37 °C for and 25 °C for and for 24 h. The results were quantified by measuring absorbance at 570 nm with a microplate reader (Tecan). The mean absorbance values were used in subsequent calculations. The growth of resazurin reduction and growth inhibition was calculated using the following normalization: % growth=100−% reduction=abs of test agent−abs of untreated control/abs of reduced resazurin−abs of untreated control The MIC was defined as the lowest concentration of the peptide that inhibited fungal growth by 90%, allowing for only 10% of the normal growth. For bacterial and yeast strains studies, serial dilutions of 100 μL ranged from 100 to 0.78 μM for each peptide in a 96 well plate using MH media for bacteria and YPD for yeast. A total of 100 μL of the microbe in suitable media (5 × 10^5 CFU/mL) was inoculated in each well. In the untreated well (e.g., control), 100 μL of treatment was replaced by the same volume with medium, while in the negative control, media were only without microbes and peptides. After 24 h of incubation at 37 °C for bacteria and 30 °C for yeast, plates were read at 595 nm and MIC was defined as the lowest concentration of peptide that reduced the growth of the microbe to 10% growth.

MRSA = test system: MRSA
Procedure: as §1, §2

A. Niger = details: 24 h
Procedure: as §1, §2

P. expansum = details: 24 h
Procedure: as §1, §2

A. fumigatus = details: 24 h
Procedure: as §1, §2

[1] = test system: filamentous fungi conidia (spores); test: Fungicidal assay (CFU log reduction); assay type: cell-based; details: 8 μM H2O2
Procedure: A 10^4 CFU/mL conidia load was incubated in yeast extract (YE) medium at 37 °C for and 25 °C for and at 200 rpm for 4 h, and 100 μL was transferred to 900 μL of PBS with peptide (final conidia load = 10^3 CFU/mL). The negative control had no peptides, and for the positive control, we used H2O2 (final concentration of 8 μM). The treated conidia were incubated for an additional 4 h at the same temperature at 200 rpm. Once the second incubation was over, the inoculum suspension was diluted, and 100 μL of both the original and the dilution was spread on Petri plates with PDA with tetracycline (10 μg/mL) and chloramphenicol (25 μg/mL) medium to exclude the growth of bacteria. The plates were incubated at matching temperatures depending on the strain. After 48 h, the CFU/mL was calculated; CFU/mL = number of counted CFU × 10^–n (n = serial dilution).
2 Fungicidal activity of BP100 and P-113 and their derivatives. Spores were counted using a hemocytometer and diluted to […]. After 4 h of incubation with the selected peptides in two different concentrations (25 and 100 μM), samples were diluted and both original and diluted samples were plated. Colonies were counted after 48 h of incubation and are presented as the log reduction of CFU/mL. […] The experiments were repeated 3 times (biological repeats) in triplicate (average ± SEM). […]

[2] = MH media, 5 × 10^5 CFU/mL, 24 h at 37 °C, read at 595 nm, MIC = growth reduced to 10%, average ± SE, 3 biological repeats in triplicates
[3] = RPMI1640 with MOPS, resazurin, absorbance 570 nm, MIC = lowest concentration inhibiting growth by 90%, average ± SE, 3 biological repeats in triplicates

SMILES	digestion by chymotrypsin (chymotrypsin)	cytotoxicity against HEK mammalian cells (MTT assay) (HEK cells)	MIC Values, E. coli (E. coli; [2]) [µM]	MIC Values, MRSA (MRSA; [2]) [µM]	MIC Values, A. Niger (A. Niger; [3]) [µM]	MIC Values, P. expansum (P. expansum; [3]) [µM]	MIC Values, A. fumigatus (A. fumigatus; [3]) [µM]	fungicidal activity, positive control [1]	digestion by chymotrypsin (chymotrypsin; peptide 4 mM in 100 μM NH4HCO3, 1 μL chymotrypsin (1 mg/mL), 37 °C, 150 rpm, analytical RP-HPLC C18, AUC normalized to t = 0)	MIC Values, E. coli (E. coli; 24 h) [µM]	MIC Values, MRSA (MRSA; 24 h) [µM]	MIC Values, A. Niger (A. Niger) [µM]	MIC Values, P. expansum (P. expansum) [µM]	MIC Values, A. fumigatus (A. fumigatus) [µM]
CC[C@H](C)[C@H](NC(=O)[C@H](CCCCN)NC(=O)[C@H](CCCCN)NC(=O)[C@H](Cc1ccccc1)NC(=O)[C@H](CC(C)C)NC(=O)[C@H](CCCCN)NC(=O)[C@@H](N)Cc1c[nH]c2ccccc12)C(=O)N[C@@H](CC(C)C)C(=O)N[C@@H](CCCCN)C(=O)N[C@@H](Cc1ccc(O)cc1)C(=O)N[C@@H](CC(C)C)C(N)=O [BP100 K1W]	fully degraded within a short time frame	low to no cytotoxicity	2 ± 0 (≈ 2.96 µg/mL)	3 ± 0 (≈ 4.44 µg/mL)	10 ± 2 (≈ 14.8 µg/mL)	6 ± 0 (≈ 8.87 µg/mL)	8 ± 2 (≈ 11.8 µg/mL)							
CC[C@H](C)[C@H](NC(=O)[C@H](CCCCN)NC(=O)[C@H](CCCCN)NC(=O)[C@H](Cc1ccccc1)NC(=O)[C@H](CC(C)C)NC(=O)[C@H](CCCCN)NC(=O)[C@H](CCCCN)NC(=O)[C@H](CC(C)C)NC(=O)[C@H](Cc1ccc(O)cc1)NC(=O)[C@H](CCCCN)NC(=O)[C@H](CC(C)C)NC(=O)[C@@H](NC(=O)[C@H](CCCCN)NC(=O)[C@H](CCCCN)NC(=O)[C@H](Cc1ccccc1)NC(=O)[C@H](CC(C)C)NC(=O)[C@H](CCCCN)NC(=O)[C@H](CCCCN)NC(=O)[C@H](CC(C)C)NC(=O)[C@H](Cc1ccc(O)cc1)NC(=O)[C@H](CCCCN)NC(=O)[C@H](CC(C)C)NC(=O)[C@@H](NC(=O)[C@H](CCCCN)NC(=O)[C@H](CCCCN)NC(=O)[C@H](Cc1ccccc1)NC(=O)[C@H](CC(C)C)NC(=O)[C@H](CCCCN)NC(=O)[C@@H](N)CCCCN)[C@@H](C)CC)[C@@H](C)CC)C(=O)N[C@@H](CC(C)C)C(=O)N[C@@H](CCCCN)C(=O)N[C@@H](Cc1ccc(O)cc1)C(=O)N[C@@H](CC(C)C)C(N)=O [BP100 Triple] (H-KKLFKKILKYLKKLFKKILKYLKKLFKKILKYL-NH2)	less prone for digestions; also recorded: not digested		>200	>200	>200	83 ± 17 (≈ 351 µg/mL)	42 ± 8.3 (≈ 178 µg/mL)							
OO [H2O2]								completely eradicated						
C[C@H](N)C(=O)N[C@@H](CCCCN)C(=O)N[C@@H](CCCNC(=N)N)C(=O)N[C@@H](Cc1c[nH]cn1)C(=O)N[C@@H](Cc1c[nH]cn1)C(=O)NCC(=O)N[C@@H](Cc1ccc(O)cc1)C(=O)N[C@@H](CCCCN)C(=O)N[C@@H](CCCNC(=N)N)C(=O)N[C@@H](CCCCN)C(=O)N[C@@H](Cc1ccccc1)C(=O)N[C@@H](Cc1c[nH]cn1)C(=O)N[C@@H](C)C(=O)N[C@@H](CCCCN)C(=O)N[C@@H](CCCNC(=N)N)C(=O)N[C@@H](Cc1c[nH]cn1)C(=O)N[C@@H](Cc1c[nH]cn1)C(=O)NCC(=O)N[C@@H](Cc1ccc(O)cc1)C(=O)N[C@@H](CCCCN)C(=O)N[C@@H](CCCNC(=N)N)C(=O)N[C@@H](CCCCN)C(=O)N[C@@H](Cc1ccccc1)C(=O)N[C@@H](Cc1c[nH]cn1)C(=O)N[C@@H](C)C(=O)N[C@@H](CCCCN)C(=O)N[C@@H](CCCNC(=N)N)C(=O)N[C@@H](Cc1c[nH]cn1)C(=O)N[C@@H](Cc1c[nH]cn1)C(=O)NCC(=O)N[C@@H](Cc1ccc(O)cc1)C(=O)N[C@@H](CCCCN)C(=O)N[C@@H](CCCNC(=N)N)C(=O)N[C@@H](CCCCN)C(=O)N[C@@H](Cc1ccccc1)C(=O)N[C@@H](Cc1c[nH]cn1)C(N)=O [P-113 Triple] (H-AKRHHGYKRKFHAKRHHGYKRKFHAKRHHGYKRKFH-NH2)		low to no cytotoxicity							fully degraded within a short time frame	42 ± 14 (≈ 196 µg/mL)	25 ± 0 (≈ 116 µg/mL)	16 ± 4 (≈ 74.5 µg/mL)	5 ± 2 (≈ 23.3 µg/mL)	5 ± 2 (≈ 23.3 µg/mL)
